The data set concerns the target T1, Human AHR (Homo sapiens, UniProt P35869).
T1 construct: expressed in transfected cells
T1 sequence (P35869 11-848): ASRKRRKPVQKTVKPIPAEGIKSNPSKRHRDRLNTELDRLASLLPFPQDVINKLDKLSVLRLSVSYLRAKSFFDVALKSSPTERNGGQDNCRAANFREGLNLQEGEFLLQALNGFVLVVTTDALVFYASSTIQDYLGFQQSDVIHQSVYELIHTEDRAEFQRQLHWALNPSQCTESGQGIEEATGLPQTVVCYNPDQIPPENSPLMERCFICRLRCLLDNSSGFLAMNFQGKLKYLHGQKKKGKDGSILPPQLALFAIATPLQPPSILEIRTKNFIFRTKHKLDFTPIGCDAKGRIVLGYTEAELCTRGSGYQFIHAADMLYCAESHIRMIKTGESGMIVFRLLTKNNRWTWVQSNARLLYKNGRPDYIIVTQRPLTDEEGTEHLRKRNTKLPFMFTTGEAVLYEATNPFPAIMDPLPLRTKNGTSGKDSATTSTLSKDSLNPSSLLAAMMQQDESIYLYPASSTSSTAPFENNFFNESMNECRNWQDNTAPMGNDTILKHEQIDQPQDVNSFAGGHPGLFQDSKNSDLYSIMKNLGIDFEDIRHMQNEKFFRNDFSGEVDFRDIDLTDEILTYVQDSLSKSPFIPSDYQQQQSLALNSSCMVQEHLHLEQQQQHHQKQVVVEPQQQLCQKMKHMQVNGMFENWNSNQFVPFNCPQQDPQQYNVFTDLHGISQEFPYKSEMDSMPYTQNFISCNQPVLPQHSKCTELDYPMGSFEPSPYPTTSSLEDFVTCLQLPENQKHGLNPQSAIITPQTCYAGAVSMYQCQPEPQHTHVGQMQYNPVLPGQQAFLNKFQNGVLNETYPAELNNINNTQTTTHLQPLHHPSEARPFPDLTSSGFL
The data set is described as follows: hAHR Nuclear Translocation Assay. The data set is classed as cell-based. To be noted: Jump-In T-REx HEK293 cells expressing AhR-EGFP chimera; 45 minutes incubation; ratio of EGFP fluorescent intensity in nuclear over cytosol; 20-point curve. Here is the method: Stable cell lines were established using Jump-In™ T-REx™ HEK293 Retargeting Kit (Life Technologies). Human AHR cDNA was cloned into the pJTI R4 CMV-TO EGFP vector. The EGFP was cloned to the C-terminal of AHR to form AhR-EGFP chimera. The pJTI R4 CMV-TO AhR-EGFP vector was transfected using FuGENE® HD into Jump-In™ T-REx™ HEK293 cells. Transfected cells were selected using 2.5 mg/ml G418 for 10 to 14 days, then expanded, harvested, and suspended in freeze media (FBS with 8% DMSO) at 2×10^7 cells/ml, and aliquots were stored in liquid nitrogen. […] On the assay date, compound was serially diluted (1:2) into 384-well nunc plates with DMSO using acoustic dispensing (ECHO). The dose response was a 20-point curve. Compound was resuspended in 40 μl of DMEM plus 0.1% BSA. The culture media was damped and 25 μl of DMEM plus 0.1% BSA was added, then 25 μl of compound in DMEM plus 0.1% BSA was added into cell plates. Cells were incubated with compounds at 37° C. and 5% CO2 for 45 minutes. The final DMSO concentration was 0.2%. The media was damped after 45 minutes of incubation. The cells were fixed with 40 μl of cold methanol (−20° C.) for 20 minutes. The methanol was damped and 50 μl of DPBS containing 1 μg/ml Hochst was added into the cell plates. The intensity of EGFP was quantitated by using OPERA PHENIX® or Operetta™ high content image system (Perkin Elmer) with 20× Water Objective and five field per well. The ratio of EGFP fluorescent intensity in nuclear over cytosol was analyzed using a 4-parameter nonlinear logistic equation to determine the potency of AHR agonists.

Each structure is given as a SMILES string.

As for `COc1ccc(NC(=O)c2cc3ccccc3n(C)c2=O)cc1OC` [Example 3, N-(3,4-Dimethoxyphenyl)-1-methyl-2-oxo-quinoline-3-carboxamide], the EC50 (as a rule, the concentration at which the effect is half-maximal) was 0.837 nM. In the case of `CN(C)CCNc1ccc2c(c1)cc(C(=O)Nc1ccc(F)cn1)c(=O)n2C` [Example 52, 6-[2-(Dimethylamino)ethylamino]-N-(5-fluoro-2-pyridyl)-1-methyl-2-oxo-quinoline-3-carboxamide], the EC50 amounted to 20.3 nM. In the case of `Cn1c(=O)c(C(=O)Nc2ccccc2)cc2c(OCCO)cccc21` [Example 60, 5-(2-Hydroxyethoxy)-1-methyl-2-oxo-N-phenyl-quinoline-3-carboxamide], the EC50 is 1.4 nM.

Regarding `Cn1c(=O)c(C(=O)Nc2cccc(F)c2)cc2ccccc21` [Example 23, N-(3-Fluorophenyl)-1-methyl-2-oxo-quinoline-3-carboxamide], the EC50 came to 0.601 nM.

As to `Cc1ccc(NC(=O)c2cc3cccc4c3n(c2=O)CC4)cc1` [Example 29, 11-Oxo-N-(p-tolyl)-1-azatricyclo[6.3.1.04,12]dodeca-4(12),5,7,9-tetraene-10-carboxamide], the EC50 amounted to 0.57 nM.

On to `Cn1c(=O)c(C(=O)Nc2ncc(F)cn2)cc2c(NCCO)cccc21` [Example 68, N-(5-Fluoropyrimidin-2-yl)-5-(2-hydroxyethylamino)-1-methyl-2-oxo-quinoline-3-carboxamide], for which the EC50 stood at 81.2 nM. For the compound `Cn1c(=O)c(C(=O)Nc2ncccn2)cc2ccccc21` [Example 39, 1-Methyl-2-oxo-N-pyrimidin-2-yl-quinoline-3-carboxamide], the EC50 was 3.52 nM.

Regarding `Cn1c(=O)c(C(=O)NC23CC(C2)C3)cc2ccccc21` [Example 32, N-(3-Bicyclo[1.1.1]pentanyl)-1-methyl-2-oxo-quinoline-3-carboxamide], the EC50 turned out to be 16.4 nM. Turning to `Cn1c(=O)c(C(=O)Nc2cccnc2)cc2ccccc21` [Example 13, 1-Methyl-2-oxo-N-(3-pyridyl)quinoline-3-carboxamide], the EC50 was determined as 3.72 nM. The value for `O=C(Nc1ccc(F)cc1)c1cc2cccc3c2n(c1=O)CC3` [Example 30, N-(4-Fluorophenyl)-11-oxo-1-azatricyclo[6.3.1.04,12]dodeca-4(12),5,7,9-tetraene-10-carboxamide] was 0.511 nM; that for `CN(C)CCNc1cccc2c1cc(C(=O)Nc1ccc(F)cn1)c(=O)n2C` [Example 51, 5-[2-(Dimethylamino)ethylamino]-N-(5-fluoro-2-pyridyl)-1-methyl-2-oxo-quinoline-3-carboxamide] was 16.4 nM; that for `Cn1c(=O)c(C(=O)Nc2ccc(F)cn2)cc2c(NCCO)cccc21` [Example 67, N-(5-Fluoro-2-pyridyl)-5-(2-hydroxyethylamino)-1-methyl-2-oxo-quinoline-3-carboxamide] was 1.92 nM.

As to `CN(C)CCNc1cccc2c1cc(C(=O)Nc1ncc(F)cn1)c(=O)n2C` [Example 57, 5-[2-(Dimethylamino)ethylamino]-N-(5-fluoropyrimidin-2-yl)-1-methyl-2-oxo-quinoline-3-carboxamide], the EC50 was determined as 62.8 nM.

Regarding `Cn1c(=O)c(C(=O)Nc2ccc(F)cc2)cc2ccccc21` [Example 4, N-(4-Fluorophenyl)-1-methyl-2-oxo-quinoline-3-carboxamide], the EC50 worked out at 0.214 nM.

On to `COc1ccc(NC(=O)c2cc3ccc(C4CC4)cc3n(C)c2=O)cc1` [Example 45, 7-Cyclopropyl-N-(4-methoxyphenyl)-1-methyl-2-oxo-quinoline-3-carboxamide], for which the EC50 was 2.14 nM. Take `Cc1cccc(NC(=O)c2cc3ccccc3n(C)c2=O)n1` [Example 19, 1-Methyl-N-(6-methyl-2-pyridyl)-2-oxo-quinoline-3-carboxamide]: the EC50 was found to be 25.8 nM. With `COc1cccc(NC(=O)c2cc3ccccc3n(C)c2=O)c1` [Example 8, N-(3-Methoxyphenyl)-1-methyl-2-oxo-quinoline-3-carboxamide] the figure was 1.12 nM; with `CN(C)CCNc1ccc2c(c1)cc(C(=O)Nc1ccccc1)c(=O)n2C` [Example 49, 6-[2-(Dimethylamino)ethylamino]-1-methyl-2-oxo-N-phenyl-quinoline-3-carboxamide], 9 nM.

Regarding `COc1cccc(NC(=O)c2cc3ccccc3n(C)c2=O)n1` [Example 21, N-(6-Methoxy-2-pyridyl)-1-methyl-2-oxo-quinoline-3-carboxamide], the EC50 is 10.8 nM. For the compound `Cn1c(=O)c(C(=O)Nc2ncc(C(F)(F)F)cn2)cc2c(NCCO)cccc21` [Example 69, 5-(2-Hydroxyethylamino)-1-methyl-2-oxo-N-[5-(trifluoromethyl)pyrimidin-2-yl]quinoline-3-carboxamide], the concentration for a half-maximal effect (EC50) was 6.66 nM.

In the case of `COc1ccc(NC(=O)c2cc3ccccc3n(C)c2=O)cc1` [Example 1, N-(4-Methoxyphenyl)-1-methyl-2-oxo-quinoline-3-carboxamide], the EC50 is 0.304 nM. In the case of `CO[C@H]1CC[C@@H](NC(=O)c2cc3cccc4c3n(c2=O)CC4)C1` (relative stereo) [Example 31, 11-Oxo-N-[rel-(1S,3R)-3-methoxycyclopentyl]-1-azatricyclo[6.3.1.04,12]dodeca-4(12),5,7,9-tetraene-10-carboxamide], the EC50 was 53.2 nM.

As for `Cn1c(=O)c(C(=O)Nc2ncc(F)cn2)cc2ccccc21` [Example 14, N-(5-Fluoropyrimidin-2-yl)-1-methyl-2-oxo-quinoline-3-carboxamide], the EC50 was determined as 0.993 nM. The value for `Cn1c(=O)c(C(=O)Nc2ncccc2F)cc2ccccc21` [Example 28, N-(3-Fluoro-2-pyridyl)-1-methyl-2-oxo-quinoline-3-carboxamide] was 1.91 nM; that for `CN(C)CCNc1ccc2c(c1)cc(C(=O)Nc1ccccn1)c(=O)n2C` [Example 55, 6-[2-(Dimethylamino)ethylamino]-1-methyl-2-oxo-N-(2-pyridyl)quinoline-3-carboxamide] was 40.6 nM; that for `Cn1c(=O)c(C(=O)Nc2ccccn2)cc2c(NCCO)cccc21` [Example 65, 5-(2-Hydroxyethylamino)-1-methyl-2-oxo-N-(2-pyridyl)quinoline-3-carboxamide] was 6.69 nM.

As for `Cc1ccc(NC(=O)c2cc3ccccc3n(C)c2=O)nc1` [Example 20, 1-Methyl-N-(5-methyl-2-pyridyl)-2-oxo-quinoline-3-carboxamide], the EC50 stood at 0.675 nM. `O=C(Nc1ccc(F)cn1)c1cc2cccc3c2n(c1=O)CC3` [Example 37, N-(5-Fluoro-2-pyridyl)-11-oxo-1-azatricyclo[6.3.1.04,12]dodeca-4(12),5,7,9-tetraene-10-carboxamide]: the EC50 was 0.807 nM. With `Cn1c(=O)c(C(=O)Nc2ncc(F)s2)cc2c(NCCO)cccc21` [Example 64, N-(5-Fluorothiazol-2-yl)-5-(2-hydroxyethylamino)-1-methyl-2-oxo-quinoline-3-carboxamide] the figure was 52.9 nM. On to `COc1ccc(NC(=O)c2cc3ccc(Br)cc3n(C)c2=O)cc1` [Example 36, 7-Bromo-N-(4-methoxyphenyl)-1-methyl-2-oxo-quinoline-3-carboxamide], for which the EC50 was determined as 0.832 nM.

In the case of `Cn1c(=O)c(C(=O)Nc2ccccc2)cc2c(NCCO)cccc21` [Example 63, 5-(2-Hydroxyethylamino)-1-methyl-2-oxo-N-phenyl-quinoline-3-carboxamide], the EC50 was found to be 1.91 nM. As for `Cn1c(=O)c(C(=O)Nc2ccccc2)cc2ccc(Br)cc21` [Example 40, 7-Bromo-1-methyl-2-oxo-N-phenyl-quinoline-3-carboxamide], the EC50 stood at 0.831 nM. `COc1cnc(NC(=O)c2cc3ccccc3n(C)c2=O)nc1` [Example 15, N-(5-Methoxypyrimidin-2-yl)-1-methyl-2-oxo-quinoline-3-carboxamide]: the EC50 came out at 14.2 nM.

The values are drawn from US12479822B2, “AHR agonists” (Eli Lilly and Company, priority 2021, dated 2025).
